Measured values: PMC12717099, “Peptidoglycan recruitment by a penicillin binding protein” (Nature Communications, 2025)
Like-named read-outs stand apart in the source and are kept apart here.

Experiments:
[1] = system: E. faecium D344SRF pCWR624Δpbp5_pbp5_V4; experiment: Disk diffusion assay, pbp5_V4; type: cell-based, Enterococcus faecium; details: strain pbp5_V4 (D530A_L533A_W457A); 37 °C, 24 h; n=3
Description: (§1) The synthetic genes were purchased from GeneWiz (South Plainfield, NJ). The ribosome binding site sequence AGGAGG (Shine-Dalgarno), and a string of five A’s followed by the sequence […], that corresponds to the first 15 bp found in pbp5 from E. faecium C68 were added upstream of the START codon. The terminator sequence […] was added downstream of the STOP codon. BamHI restriction sites were added to the flanking 5′ and 3′ ends. The synthetic genes were inserted into the vector pCWR624Δpbp5. This vector was derived from pCWR624[10], in which the pbp5 gene from D366 was excised by digestion with BamHI followed by re-ligation of the vector, allowing subsequent insertion of modified synthetic pbp5s into the BamHI site downstream of ftsWEfm and psr from E. faecium C68[10]. The synthetic genes were inserted in a BamHI site located downstream of psr. The proper orientation was confirmed by PCR amplification using the forward primer OR_pbp5_FOR_1 (5′-[…]-3′) and the reverse primer OR_pbp5_REV_1 (5′-[…]-3′). Plasmids were sequence verified for the specific binding site mutations. The resulting constructions were electroporated into the natural pbp5(-) mutant E. faecium D344SRF with a selection on brain heart infusion agar (BHI) plates containing kanamycin (1500 µg/ml).
(§2) E. faecium strains were streaked fresh from −80 °C stored glycerol stocks onto brain heart infusion (BHI) agar plates and incubated for 18 h at 37 °C. Strains harboring the plasmid derivatives were grown under antibiotic pressure on agar plates containing kanamycin at 1500 µg/ml. A single colony was inoculated into BHI or BHI-kanamycin (1500 µg/ml) for overnight cultures (18 h).
(§3) Antibiotic disks used were manufactured by BD BBL^TM. Disk diffusion assays were performed according to the Clinical and Laboratory Standards Institute (CLSI) guidance. Overnight cultures were inoculated into 3 ml of BHI or BHI-kanamycin (1500 µg/ml) broth with a dilution of 1:100 and incubated until an OD600 of ~0.5 was reached. […] The plates were incubated at 37 °C and the zones of inhibition were measured after 24 h. […]

[2] = system: E. faecium D344SRF pCWR624Δpbp5_pbp5_V6; experiment: Disk diffusion assay, pbp5_V6; type: cell-based, Enterococcus faecium; details: strain pbp5_V6 (E284A_E291A_S294A_N295A); 37 °C, 24 h; n=3
Description: as §1, §2, §3

[3] = system: E. faecium D344SRF, Wild Type; experiment: MIC by broth microdilution, Wild Type; type: cell-based, Enterococcus faecium; details: strain Wild Type; BHI broth microdilution, 37 °C, 20 h, read by eye; n=3
Description: as §2
MIC determination was performed using a standard broth microdilution technique in duplicate from independent cultures. Overnight cultures were inoculated into 3 ml of BHI or BHI-kanamycin (1500 µg/ml) broth in a dilution of 1:100 and incubated until an OD600 of ~0.5 was reached. Cultures were diluted 1:1000 and inoculated into the 96-well plates with the corresponding antibiotics to be tested. Plates were incubated at 37 °C for 20 h and read by eye. The MICs were defined as the lowest antibiotic concentration that inhibited growth.

[4] = system: E. faecium D344SRF pCWR624Δpbp5_pbp5_V4; experiment: MIC by broth microdilution, pbp5_V4; type: cell-based, Enterococcus faecium; details: strain pbp5_V4 (D530A_L533A_W457A); 37 °C, 20 h; n=3
Description: as §1, with “The resulting constructions were electroporated into the natural pbp5(-) mutant E. faecium D344SRF with a selection on brain heart infusion agar (BHI) plates containing kanamycin (1500 µg/ml).” left out
MIC determination was performed using a standard broth microdilution technique in duplicate from independent cultures. […] Plates were incubated at 37 °C for 20 h and read by eye. […]

PBP4 = details: for STD amplification factor, 2000: protein:peptide 1:100, 2 s saturation
Description: STD NMR experiments were carried out on 0.02 mM unlabeled PBP5T485, PBP4, and PBP2B in NMR buffer (10 mM MES pH 5.8, 25 mM NaCl) at 308 K with the peptides (SP1, SP2, SP4, SP5 and SP6 with PBP5, SP2 also with PBP4 and PBP2B) at 1:100 PBP5:peptide molar ratios using a pseudo 2D pulse sequence that leverages a shaped pulse train for saturation and selected water suppression by excitation sculpting with gradients. All STD experiments were performed at 800 MHz for best resolution and least signal overlap. Total saturation time for STD measurements was 2 s. A 2 s recycling delay, and 64 scans were used for all STD experiments. Selective protein saturation was achieved by setting the on-resonance frequency on PBP5 methyl peaks at 0.73 ppm. For the off-resonance (reference) spectrum, the irradiation frequency was shifted to −40 ppm. […] LTotal/PTotal is the ligand excess relative to a constant protein concentration.
For a uniform analysis, we normalized the STD amplification factor by using the highest STD amplification factor in the SP1:PBP5 analysis and using the same STD amplification factor to normalize other SPs (SP2-6) to allow for a rigorous comparison. For the analysis of the STD NMR data only data from non-exchangeable protons (CH groups) were utilized. Overlapped peaks were completely excluded from the analysis.

CO/N=C(\C(=O)N[C@@H]1C(=O)N2C(C(=O)O)=C(CSc3nc(=O)c(=O)[nH]n3C)CS[C@H]12)c1csc(N)n1 [Ceftriaxone, ceftriaxone]
Zone Size (mm) [Range] [1]: 26 [26-28] mm
Zone Size (mm) [Range] [2]: 0 [0] mm
MIC (µg/ml) [Range] [3]: 50 [25-100] µg/ml
MIC (µg/ml) [Range] [4]: 25 [25-50] µg/ml

D-Lac-L-Ala-D-iGln-L-Lys(D-iAsn) [SP2]
STD % to SP1 (PBP4; 1H DLacβ): 28.7108%
STD amplification factor as fraction of highest SP1:PBP5 value (PBP4; 1H DLacβ): 0.2871
STD amplification factor, 2000 (PBP4; 1H DLacβ): 7.726
STD % to SP1 (PBP4; 1H DQ2β (first listed)): 57.5161%
STD amplification factor as fraction of highest SP1:PBP5 value (PBP4; 1H DQ2β (first listed)): 0.5752
STD amplification factor, 2000 (PBP4; 1H DQ2β (first listed)): 15.4766
STD % to SP1 (PBP4; 1H DQ2β (second listed)): 62.3639%
STD amplification factor as fraction of highest SP1:PBP5 value (PBP4; 1H DQ2β (second listed)): 0.6236
STD amplification factor, 2000 (PBP4; 1H DQ2β (second listed)): 16.7811
STD % to SP1 (PBP4; 1H DQ2γ): 18.9556%
STD amplification factor as fraction of highest SP1:PBP5 value (PBP4; 1H DQ2γ): 0.1896
STD amplification factor, 2000 (PBP4; 1H DQ2γ): 5.101
STD % to SP1 (PBP4; 1H K3α): 41.8044%
STD amplification factor as fraction of highest SP1:PBP5 value (PBP4; 1H K3α): 0.418
STD amplification factor, 2000 (PBP4; 1H K3α): 11.2489
STD % to SP1 (PBP4; 1H K3β): 89.5852%
STD amplification factor as fraction of highest SP1:PBP5 value (PBP4; 1H K3β): 0.8959
STD amplification factor, 2000 (PBP4; 1H K3β): 24.1059
STD % to SP1 (PBP4; 1H K3γ): 46.145%
STD amplification factor as fraction of highest SP1:PBP5 value (PBP4; 1H K3γ): 0.4615
STD amplification factor, 2000 (PBP4; 1H K3γ): 12.4169
STD % to SP1 (PBP4; 1H K3δ): 58.6188%
STD amplification factor as fraction of highest SP1:PBP5 value (PBP4; 1H K3δ): 0.5862
STD amplification factor, 2000 (PBP4; 1H K3δ): 15.7734
STD % to SP1 (PBP4; 1H K3ε): 16.4854%
STD amplification factor as fraction of highest SP1:PBP5 value (PBP4; 1H K3ε): 0.1649
STD amplification factor, 2000 (PBP4; 1H K3ε): 4.436
STD % to SP1 (PBP4; 1H LA1α): 41.4108%
STD amplification factor as fraction of highest SP1:PBP5 value (PBP4; 1H LA1α): 0.4141
STD amplification factor, 2000 (PBP4; 1H LA1α): 11.143
STD % to SP1 (PBP4; 1H LA1β): 30.5144%
STD amplification factor as fraction of highest SP1:PBP5 value (PBP4; 1H LA1β): 0.3051
STD amplification factor, 2000 (PBP4; 1H LA1β): 8.211
STD % to SP1 (PBP4; 1H iNα,DQ2α): 21.1266%
STD amplification factor as fraction of highest SP1:PBP5 value (PBP4; 1H iNα,DQ2α): 0.2113
STD amplification factor, 2000 (PBP4; 1H iNα,DQ2α): 5.685
STD % to SP1 (PBP4; 1H iNβ): 26.2423%
STD amplification factor as fraction of highest SP1:PBP5 value (PBP4; 1H iNβ): 0.2624
STD amplification factor, 2000 (PBP4; 1H iNβ): 7.061
